According to ChEMBL document CHEMBL1201862, “PubChem BioAssay data set” (2004):
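Exposure lasted 48 hours, with cells grown in 96-well plates and compounds tested at five concentrations. GI50: concentration for 50% inhibition of growth.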 Calls of active or inactive are those of the source. Rule as the data show it: active = GI50 up to about 1.1 µM and inactive = higher.

Tests used:
Assay in all cases: NCI anticancer screen, dose series, 48 h
786-0 = system: 786-0
A549 = system: A549
ACHN = system: ACHN
CAKI-1 = system: CAKI-1
CCRF-CEM = system: CCRF-CEM
COLO 205 = system: COLO 205
DU-145 = system: DU-145
EKVX = system: EKVX
HCC 2998 = system: HCC 2998
HCT-116 = system: HCT-116
HCT-15 = system: HCT-15
HL-60 = system: HL-60
HOP-62 = system: HOP-62
HOP-92 = system: HOP-92
HT-29 = system: HT-29
Hs-578T = system: Hs-578T
IGROV-1 = system: IGROV-1
K562 = system: K562
KM12 = system: KM12
LOX IMVI = system: LOX IMVI
M14 = system: M14
MCF7 = system: MCF7
MDA-MB-231 = system: MDA-MB-231
MDA-MB-435 = system: MDA-MB-435
MDA-N = system: MDA-N
MOLT-4 = system: MOLT-4
Malme-3M = system: Malme-3M
NCI-H226 = system: NCI-H226
NCI-H23 = system: NCI-H23
NCI-H460 = system: NCI-H460
NCI-H522 = system: NCI-H522
NCI/ADR-RES = system: NCI/ADR-RES
OVCAR-3 = system: OVCAR-3
OVCAR-4 = system: OVCAR-4
OVCAR-5 = system: OVCAR-5
OVCAR-8 = system: OVCAR-8
PC-3 = system: PC-3
RPMI-8226 = system: RPMI-8226
SF-268 = system: SF-268
SF-295 = system: SF-295
SF-539 = system: SF-539
SK-MEL-28 = system: SK-MEL-28
SK-MEL-2 = system: SK-MEL-2
SK-MEL-5 = system: SK-MEL-5
SN12C = system: SN12C
SNB-19 = system: SNB-19
SNB-75 = system: SNB-75
SR = system: SR
SW-620 = system: SW-620
T47D = system: T47D
TK-10 = system: TK-10
U-251 = system: U-251
UACC-257 = system: UACC-257
UO-31 = system: UO-31

C=C(C)C1CC=C(C)C(=O)C1 (centres undefined) [CARVONE]
GI50 (786-0): > 100 µM (inactive)
GI50 (A549): > 100 µM (inactive)
GI50 (ACHN): > 100 µM (inactive)
GI50 (CAKI-1): > 100 µM (inactive)
GI50 (CCRF-CEM): > 100 µM (inactive)
GI50 (COLO 205): > 100 µM (inactive)
GI50 (DU-145): > 100 µM (inactive)
GI50 (EKVX): > 100 µM (inactive)
GI50 (HCC 2998): > 100 µM (inactive)
GI50 (HCT-116): > 100 µM (inactive)
GI50 (HCT-15): > 100 µM
GI50 (HL-60): > 100 µM (inactive)
GI50 (HOP-62): > 100 µM (inactive)
GI50 (HOP-92): > 100 µM (inactive)
GI50 (HT-29): > 100 µM (inactive)
GI50 (Hs-578T): > 100 µM (inactive)
GI50 (IGROV-1): > 100 µM (inactive)
GI50 (K562): > 100 µM (inactive)
GI50 (KM12): > 100 µM (inactive)
GI50 (LOX IMVI): > 100 µM (inactive)
GI50 (M14): > 100 µM (inactive)
GI50 (MCF7): > 100 µM (inactive)
GI50 (MDA-MB-231): > 100 µM (inactive)
GI50 (MDA-MB-435): > 100 µM (inactive)
GI50 (MDA-N): > 100 µM (inactive)
GI50 (MOLT-4): > 100 µM (inactive)
GI50 (Malme-3M): > 100 µM (inactive)
GI50 (NCI-H226): > 100 µM (inactive)
GI50 (NCI-H23): > 100 µM (inactive)
GI50 (NCI-H460): > 100 µM (inactive)
GI50 (NCI-H522): > 100 µM (inactive)
GI50 (NCI/ADR-RES): > 100 µM (inactive)
GI50 (OVCAR-3): > 100 µM (inactive)
GI50 (OVCAR-4): > 100 µM (inactive)
GI50 (OVCAR-5): > 100 µM (inactive)
GI50 (OVCAR-8): > 100 µM (inactive)
GI50 (PC-3): > 100 µM (inactive)
GI50 (RPMI-8226): > 100 µM (inactive)
GI50 (SF-268): > 100 µM (inactive)
GI50 (SF-295): > 100 µM (inactive)
GI50 (SF-539): > 100 µM (inactive)
GI50 (SK-MEL-28): > 100 µM (inactive)
GI50 (SK-MEL-2): > 100 µM (inactive)
GI50 (SK-MEL-5): > 100 µM (inactive)
GI50 (SN12C): > 100 µM (inactive)
GI50 (SNB-19): > 100 µM (inactive)
GI50 (SNB-75): > 100 µM (inactive)
GI50 (SR): > 100 µM (inactive)
GI50 (SW-620): > 100 µM (inactive)
GI50 (T47D): > 100 µM (inactive)
GI50 (TK-10): > 100 µM (inactive)
GI50 (U-251): > 100 µM (inactive)
GI50 (UACC-257): > 100 µM (inactive)
GI50 (UO-31): > 100 µM (inactive)
